In ChEMBL document CHEMBL4130348, “Structure-activity relationship investigation for benzonaphthyridinone derivatives as novel potent Bruton's tyrosine kinase (BTK) irreversible inhibitors” (Eur J Med Chem, 2017):
Calls of active or inactive are those of the source. No cut-off for these calls is given here.

How the values were obtained:
OCI-AML-3 = assay: Antiproliferative activity against human OCI-AML3 cells after 72 hrs by CellTiter-Glo assay; assay type: functional; conditions: OCI-AML-3, 72 h
NCI-H460 = assay: Antiproliferative activity against human NCI-H460 cells after 72 hrs by CellTiter-Glo assay; assay type: functional; conditions: NCI-H460, 72 h
K562 = assay: Antiproliferative activity against human K562 cells after 72 hrs by CellTiter-Glo assay; assay type: functional; conditions: K562, 72 h
Z-138 = assay: Antiproliferative activity against human Z138 cells after 72 hrs by CellTiter-Glo assay; assay type: functional; conditions: Z-138, 72 h
[1] = system: Tyrosine-protein kinase JAK3; assay: Inhibition of TEL-fused JAK3 (unknown origin) expressed in mouse BA/F3 cells after 72 hrs by CellTiter-Glo assay; conditions: Homo sapiens
HL-60 = assay: Antiproliferative activity against human HL60 cells after 72 hrs by CellTiter-Glo assay; assay type: functional; conditions: HL-60, 72 h
[2] = Antiproliferative activity against mouse BA/F3 cells after 72 hrs by CellTiter-Glo assay; assay type: cell-based, BaF3
cells = assay type: functional; conditions: Homo sapiens, CLL cell, 72 h
MOLM-14 = assay: Antiproliferative activity against human MOLM14 cells after 72 hrs by CellTiter-Glo assay; assay type: functional; conditions: MOLM-14, 72 h
NAMALVA = assay: Antiproliferative activity against human NAMALWA cells after 72 hrs by CellTiter-Glo assay; assay type: functional
[3] = target: T1, Tyrosine-protein kinase BTK (Homo sapiens, UniProt Q06187); assay: Inhibition of recombinant full length His-tagged human BTK expressed in baculovirus expression system using poly (4:1 Glu, Tyr) as substrate preincubated for 1 hr followed by substrate addition measured after 1 hr by ADP-glo assay
JVM-2 = assay: Antiproliferative activity against human JVM2 cells after 72 hrs by CellTiter-Glo assay; assay type: functional; conditions: JVM-2, 72 h
SKM-1 = assay: Antiproliferative activity against human SKM1 cells after 72 hrs by CellTiter-Glo assay; assay type: functional; conditions: SKM-1, 72 h
[4] = target: Tyrosine-protein kinase JAK1 (Homo sapiens) (UniProt P23458); assay: Inhibition of TEL-fused JAK1 (unknown origin) expressed in mouse BA/F3 cells after 72 hrs by CellTiter-Glo assay; assay type: cell-based
[5] = Antiproliferative activity against human RV1 cells after 72 hrs by CellTiter-Glo assay; assay type: functional; conditions: RV-1, 72 h
HEL = assay: Antiproliferative activity against human HEL cells after 72 hrs by CellTiter-Glo assay; assay type: functional
Ramos [6] = assay: Antiproliferative activity against human Ramos cells after 72 hrs by CellTiter-Glo assay; assay type: functional
[7] = target: T1, Tyrosine-protein kinase BTK; assay: Inhibition of BTK transphosphorylation at Y551 in anti-IgM stimulated human Pfeiffer cells at 100 to 1000 nM after 4 hrs by chemiluminescence assay; assay type: cell-based
[8] = target: T1, Tyrosine-protein kinase BTK; assay: Irreversible inhibition of recombinant full length His-tagged human BTK expressed in baculovirus expression system using poly (4:1 Glu, Tyr) as substrate assessed as ratio of Kinact to Ki preincubated for 2 to 60 mins followed by substrate addition measured after 1 hr by ADP-glo assay
[9] = target: T1, Tyrosine-protein kinase BTK; assay: Inhibition of BTK in anti-IgM stimulated human MOLM13 cells assessed as decrease in PLCgamma2 phosphorylation at Y1217 at 100 to 1000 nM after 4 hrs by chemiluminescence assay
Pfeiffer [10] = assay: Cell cycle arrest in human Pfeiffer cells assessed as accumulation at G0/G1 phase up to 10 uM after 48 hrs by propidium iodide staining-based flow cytometric method; assay type: functional
[11] = target: T1, Tyrosine-protein kinase BTK; assay: Inhibition of BTK transphosphorylation at Y551 in anti-IgM stimulated human MOLM13 cells at 100 to 1000 nM after 4 hrs by chemiluminescence assay
[12] = target: T1, Tyrosine-protein kinase BTK; assay: Inhibition of BTK autophosphorylation at Y223 in anti-IgM stimulated human Ramos cells after 4 hrs by chemiluminescence assay; assay type: cell-based
Ramos [13] = assay: Induction of apoptosis in human Ramos cells assessed as caspase-3 cleavage up to 10 uM after 48 hrs by immunoblot method; assay type: functional, cell-based
[14] = target: Cytoplasmic tyrosine-protein kinase BMX (Homo sapiens, UniProt P51813); assay: Inhibition of recombinant full length His-tagged human BMX expressed in baculovirus expression system using poly (4:1 Glu, Tyr) as substrate preincubated for 1 hr followed by substrate addition measured after 1 hr by ADP-glo assay
[15] = target: T1, Tyrosine-protein kinase BTK; assay: Inhibition of BTK autophosphorylation at Y223 in anti-IgM stimulated human MOLM13 cells after 4 hrs by chemiluminescence assay
Ramos [16] = assay: Cell cycle arrest in human Ramos cells assessed as accumulation at G0/G1 phase up to 10 uM after 48 hrs by propidium iodide staining-based flow cytometric method; assay type: functional
[17] = target: T1, Tyrosine-protein kinase BTK; assay: Inhibition of BTK in anti-IgM stimulated human Ramos cells assessed as decrease in PLCgamma2 phosphorylation at Y1217 after 4 hrs by chemiluminescence assay; assay type: cell-based
[18] = target: T1, Tyrosine-protein kinase BTK; assay: Inhibition of BTK in anti-IgM stimulated human Pfeiffer cells assessed as decrease in PLCgamma2 phosphorylation at Y1217 at 100 to 1000 nM after 4 hrs by chemiluminescence assay; assay type: cell-based
[19] = target: Tyrosine-protein kinase Blk (Homo sapiens, UniProt P51451); assay: Inhibition of recombinant full length His-tagged human BLK expressed in baculovirus expression system using poly (4:1 Glu, Tyr) as substrate preincubated for 1 hr followed by substrate addition measured after 1 hr by ADP-glo assay
Pfeiffer [20] = assay: Induction of apoptosis in human Pfeiffer cells assessed as PARP cleavage up to 10 uM after 48 hrs by immunoblot method; assay type: functional, cell-based
[21] = target: T1, Tyrosine-protein kinase BTK; assay: Irreversible inhibition of recombinant full length His-tagged human BTK expressed in baculovirus expression system using poly (4:1 Glu, Tyr) as substrate preincubated for 2 to 60 mins followed by substrate addition measured after 1 hr by ADP-glo assay
MOLM-13 [22] = assay: Induction of apoptosis in human MOLM13 cells assessed as caspase-3 cleavage up to 10 uM after 48 hrs by immunoblot method; assay type: functional, cell-based
MOLM-13 [23] = assay: Cell cycle arrest in human MOLM13 cells assessed as accumulation at G0/G1 phase up to 10 uM after 48 hrs by propidium iodide staining-based flow cytometric method; assay type: functional
MOLM-13 [24] = assay: Induction of apoptosis in human MOLM13 cells assessed as PARP cleavage up to 10 uM after 48 hrs by immunoblot method; assay type: functional, cell-based
Pfeiffer [25] = assay: Induction of apoptosis in human Pfeiffer cells assessed as caspase-3 cleavage up to 10 uM after 48 hrs by immunoblot method; assay type: functional, cell-based
Ramos [26] = assay: Induction of apoptosis in human Ramos cells assessed as PARP cleavage up to 10 uM after 48 hrs by immunoblot method; assay type: functional, cell-based
[27] = target: T1, Tyrosine-protein kinase BTK; assay: Inhibition of BTK transphosphorylation at Y551 in anti-IgM stimulated human Ramos cells at 100 to 1000 nM after 4 hrs by chemiluminescence assay; assay type: cell-based
[28] = target: T1, Tyrosine-protein kinase BTK; assay: Inhibition of BTK autophosphorylation at Y223 in anti-IgM stimulated human Pfeiffer cells after 4 hrs by chemiluminescence assay; assay type: cell-based

T1 sequence (Q06187 whole entry): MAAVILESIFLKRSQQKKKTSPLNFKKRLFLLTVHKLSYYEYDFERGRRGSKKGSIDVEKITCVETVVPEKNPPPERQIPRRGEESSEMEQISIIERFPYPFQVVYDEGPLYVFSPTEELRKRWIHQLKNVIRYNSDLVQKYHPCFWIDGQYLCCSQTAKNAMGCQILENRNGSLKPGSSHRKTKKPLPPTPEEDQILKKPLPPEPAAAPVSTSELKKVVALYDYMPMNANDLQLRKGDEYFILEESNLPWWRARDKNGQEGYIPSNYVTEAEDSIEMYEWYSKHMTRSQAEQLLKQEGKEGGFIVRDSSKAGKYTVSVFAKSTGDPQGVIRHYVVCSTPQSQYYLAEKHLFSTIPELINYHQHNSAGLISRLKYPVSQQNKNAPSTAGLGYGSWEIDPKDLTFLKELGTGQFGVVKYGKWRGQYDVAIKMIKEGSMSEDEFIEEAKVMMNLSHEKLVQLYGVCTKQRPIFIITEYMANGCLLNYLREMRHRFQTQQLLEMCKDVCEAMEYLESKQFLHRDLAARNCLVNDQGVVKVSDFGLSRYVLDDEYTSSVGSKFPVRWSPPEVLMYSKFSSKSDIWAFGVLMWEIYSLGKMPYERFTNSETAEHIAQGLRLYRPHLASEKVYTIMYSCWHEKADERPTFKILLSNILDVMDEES
Tyrosine-protein kinase JAK1 (Homo sapiens), sequence (P23458 whole entry, the tested form may be a part): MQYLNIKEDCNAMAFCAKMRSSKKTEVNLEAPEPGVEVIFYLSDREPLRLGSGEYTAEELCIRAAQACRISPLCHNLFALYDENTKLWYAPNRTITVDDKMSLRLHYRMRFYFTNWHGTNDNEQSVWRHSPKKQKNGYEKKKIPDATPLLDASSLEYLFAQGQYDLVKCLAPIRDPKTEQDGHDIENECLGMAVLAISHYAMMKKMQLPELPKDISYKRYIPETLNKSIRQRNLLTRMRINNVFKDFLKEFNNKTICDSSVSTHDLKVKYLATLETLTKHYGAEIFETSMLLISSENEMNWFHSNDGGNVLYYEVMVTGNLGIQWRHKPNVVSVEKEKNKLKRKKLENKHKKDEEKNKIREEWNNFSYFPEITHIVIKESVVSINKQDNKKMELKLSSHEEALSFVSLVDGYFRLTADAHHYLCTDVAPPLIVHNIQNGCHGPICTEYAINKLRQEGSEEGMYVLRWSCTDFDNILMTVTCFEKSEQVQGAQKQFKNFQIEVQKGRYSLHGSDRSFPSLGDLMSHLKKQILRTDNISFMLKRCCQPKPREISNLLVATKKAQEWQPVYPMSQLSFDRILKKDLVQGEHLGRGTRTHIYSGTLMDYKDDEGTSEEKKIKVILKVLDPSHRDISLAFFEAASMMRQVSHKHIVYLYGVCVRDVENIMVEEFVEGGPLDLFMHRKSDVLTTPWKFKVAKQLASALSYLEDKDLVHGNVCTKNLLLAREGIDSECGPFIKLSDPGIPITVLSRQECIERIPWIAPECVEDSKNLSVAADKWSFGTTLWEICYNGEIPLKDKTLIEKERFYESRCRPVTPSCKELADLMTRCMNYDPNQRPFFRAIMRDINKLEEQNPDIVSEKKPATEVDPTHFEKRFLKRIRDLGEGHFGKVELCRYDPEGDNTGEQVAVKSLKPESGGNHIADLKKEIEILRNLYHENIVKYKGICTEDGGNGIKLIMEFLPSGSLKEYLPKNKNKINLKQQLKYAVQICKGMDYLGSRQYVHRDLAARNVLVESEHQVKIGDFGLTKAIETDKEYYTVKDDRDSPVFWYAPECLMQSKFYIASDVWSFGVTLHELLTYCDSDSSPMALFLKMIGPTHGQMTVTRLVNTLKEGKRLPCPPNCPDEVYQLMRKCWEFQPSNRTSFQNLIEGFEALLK
Tyrosine-protein kinase Blk, sequence (P51451 whole entry): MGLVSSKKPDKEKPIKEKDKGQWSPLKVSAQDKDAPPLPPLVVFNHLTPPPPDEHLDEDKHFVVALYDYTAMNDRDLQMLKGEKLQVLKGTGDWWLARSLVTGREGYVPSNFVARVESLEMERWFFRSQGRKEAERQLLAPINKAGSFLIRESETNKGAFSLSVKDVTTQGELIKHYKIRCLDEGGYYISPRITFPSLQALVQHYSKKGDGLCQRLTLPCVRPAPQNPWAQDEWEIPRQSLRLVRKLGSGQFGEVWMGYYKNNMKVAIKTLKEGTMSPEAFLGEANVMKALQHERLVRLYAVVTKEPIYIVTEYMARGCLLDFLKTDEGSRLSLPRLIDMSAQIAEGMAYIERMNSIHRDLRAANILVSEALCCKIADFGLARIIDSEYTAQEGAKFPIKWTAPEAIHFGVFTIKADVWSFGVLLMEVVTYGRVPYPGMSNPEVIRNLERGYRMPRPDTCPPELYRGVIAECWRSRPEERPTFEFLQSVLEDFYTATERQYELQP
Cytoplasmic tyrosine-protein kinase BMX, sequence (P51813 whole entry): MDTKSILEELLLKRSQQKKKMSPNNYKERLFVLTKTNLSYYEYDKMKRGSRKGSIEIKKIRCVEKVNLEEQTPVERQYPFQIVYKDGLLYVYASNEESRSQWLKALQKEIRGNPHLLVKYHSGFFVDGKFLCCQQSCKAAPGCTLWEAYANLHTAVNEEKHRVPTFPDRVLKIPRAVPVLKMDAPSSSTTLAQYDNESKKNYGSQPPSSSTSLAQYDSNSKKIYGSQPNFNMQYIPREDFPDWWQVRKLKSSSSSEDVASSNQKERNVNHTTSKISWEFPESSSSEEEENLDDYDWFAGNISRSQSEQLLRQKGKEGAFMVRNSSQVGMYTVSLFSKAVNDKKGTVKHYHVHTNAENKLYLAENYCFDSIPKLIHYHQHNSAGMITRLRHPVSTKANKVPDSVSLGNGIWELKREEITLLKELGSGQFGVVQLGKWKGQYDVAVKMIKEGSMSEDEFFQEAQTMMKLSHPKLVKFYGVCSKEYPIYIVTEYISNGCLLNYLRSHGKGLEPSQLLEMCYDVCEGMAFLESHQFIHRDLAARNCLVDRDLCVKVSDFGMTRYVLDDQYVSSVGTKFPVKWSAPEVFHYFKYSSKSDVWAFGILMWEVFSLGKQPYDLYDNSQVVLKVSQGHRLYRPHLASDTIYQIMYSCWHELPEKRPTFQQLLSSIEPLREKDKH

**Q.** Which results are given for `CCC(=O)Nc1cc(-n2c(=O)ccc3cnc4ccc(-n5cccn5)cc4c32)ccc1C`?
**A.** GI50 (OCI-AML-3): > 10 µM; GI50 (NCI-H460): > 10 µM; GI50 (K562): > 10 µM; GI50 (Z-138): > 10 µM; GI50 [1]: > 10 µM; GI50 (HL-60): > 10 µM; GI50 at 72 h [2]: > 10 µM; GI50 (cells): > 10 µM; GI50 (MOLM-14): > 10 µM; GI50 (NAMALVA): > 10 µM; IC50 [3]: 6.87 µM; GI50 (JVM-2): > 10 µM; GI50 (SKM-1): > 10 µM; GI50 [4]: > 10 µM; GI50 [5]: > 10 µM; GI50 (HEL): > 10 µM; GI50 (Ramos [6]): > 10 µM

**Q.** Which GI50 (OCI-AML-3) does the source give for `C=CC(=O)Nc1cc(-n2c(=O)ccc3cnc4ccc(-n5cccn5)cc4c32)ccc1C` here?
**A.** 5.6 µM

**Q.** And the inhibition [7]?
**A.** inactive

**Q.** What about the Ratio [8] of the same molecule?
**A.** 0.01 µM⁻¹ s⁻¹

**Q.** And the inhibition [9]?
**A.** inactive

**Q.** And the Activity (Pfeiffer [10])?
**A.** Active

**Q.** What about the GI50 (NCI-H460) of the same molecule?
**A.** > 10 µM

**Q.** And the inhibition [11]?
**A.** inactive

**Q.** And the GI50 (K562)?
**A.** > 10 µM

**Q.** What about the GI50 (Z-138) of the same molecule?
**A.** 8.5 µM

**Q.** And the GI50 [1]?
**A.** 9.67 µM

**Q.** What about the GI50 (HL-60) of the same molecule?
**A.** 3.8 µM

**Q.** What about the GI50 at 72 h [2] of the same molecule?
**A.** > 10 µM

**Q.** And the EC50 [12]?
**A.** < 0.1 µM

**Q.** What about the Activity (Ramos [13]) of the same molecule?
**A.** Active

**Q.** What about the IC50 [14] of the same molecule?
**A.** 0.083 µM

**Q.** And the EC50 [15]?
**A.** < 0.1 µM

**Q.** And the Activity (Ramos [16])?
**A.** Active

**Q.** And the GI50 (cells)?
**A.** 3.7 µM

**Q.** And the GI50 (MOLM-14)?
**A.** 1.5 µM

**Q.** And the GI50 (NAMALVA)?
**A.** 4.5 µM

**Q.** What about the EC50 [17] of the same molecule?
**A.** < 1 µM

**Q.** What about the inhibition [18] of the same molecule?
**A.** inactive

**Q.** And the IC50 [19]?
**A.** > 10 µM

**Q.** What about the Activity (Pfeiffer [20]) of the same molecule?
**A.** Active

**Q.** And the GI50 (JVM-2)?
**A.** 3.4 µM

**Q.** What about the Ki [21] of the same molecule?
**A.** 0.097 µM

**Q.** What about the Kinact [21] of the same molecule?
**A.** 0.07 min⁻¹

**Q.** And the Activity (MOLM-13 [22])?
**A.** Active

**Q.** What about the Activity (MOLM-13 [23]) of the same molecule?
**A.** Active

**Q.** What about the Activity (MOLM-13 [24]) of the same molecule?
**A.** Active

**Q.** And the GI50 (SKM-1)?
**A.** 2.5 µM

**Q.** What about the Activity (Pfeiffer [25]) of the same molecule?
**A.** Active

**Q.** And the GI50 [4]?
**A.** 2.67 µM

**Q.** And the GI50 [5]?
**A.** > 10 µM

**Q.** What about the Activity (Ramos [26]) of the same molecule?
**A.** Active

**Q.** And the inhibition [27]?
**A.** inactive

**Q.** And the GI50 (HEL)?
**A.** 1.8 µM

**Q.** And the GI50 (Ramos [6])?
**A.** 3.5 µM

**Q.** What about the EC50 [28] of the same molecule?
**A.** < 3 µM
